Measured values published in US10329334B2 (SANOFI, priority 2015, dated 2019).

Key:
[1] = molecular target: T1, human lipocalin 2 (hNGAL) mutein SEQ ID NO: 57 (Homo sapiens, UniProt P80188, A60Y/C107S/D97R/I61W/K145L/K154N/K93R/L123Q/L56V/L90R/N116P/Q48H/Q69A/R101W/R92W/S147R/S88D/W99D/Y120E/Y126R/Y152A); test: Solution binding ELISA, mutein SEQ ID NO: 57
T1 construct: made in house; host or cells: E. coli
Method: (§6) In detail, a 384-well plate suitable for fluorescence measurements (Greiner FLUOTRAC™ 600, black flat bottom, high-binding) was coated with 20 μl of Neutravidin at a concentration of 5 μg/ml in PBS over night at 4 C. After washing, the Neutravidin-coated wells were blocked with 100 μl blocking buffer containing 0.1% Tween 20 and 2% BSA (PBS-T/BSA) for 1 h at room temperature.
(§7) The residual supernatants were discarded and 20 μl HRP-labeled anti-hNGAL antibody was added at a predetermined optimal concentration in PBS-T/BSA and incubated for 1 h at RT. […] After washing, 20 μl fluorogenic HRP substrate (QuantaBlu, Thermo) was added to each well, and the reaction was allowed to proceed for 15 to 60 minutes. The fluorescence intensity of every well on the plate was read using a fluorescence microplate reader (Tecan or Molecular Devices). […] Curve fitting was performed using GraphPad Prism 4 software.

[2] = molecular target: T2, human lipocalin 2 (hNGAL) muteins from affinity optimization of SEQ ID NO: 55 (Homo sapiens, UniProt P80188); test: Solution binding ELISA, muteins from affinity optimization of SEQ ID NO: 55
T2 construct: C-terminal SA linker and Strep-tag II; E. coli
Method: (§1) Solution binding of muteins was assayed by a “Solution binding ELISA”, the principle of which was as follows: a constant concentration of the tested mutein was incubated with variable concentrations of ligands (Pvd I s, sa, aKG+/−Fe/Pvd II s, sa, aKG+/−Fe/Pvd III s, sa, aKG+/−Fe/Pch+/−Fe) for 1 h. After this pre-incubation in solution, an aliquot of the mutein/ligand mixture was transferred to an ELISA plate with biotinalyted Pvd I s (+Fe), Pvd II s (+Fe), Pvd III s (+Fe) or Pch immobilized via Neutravidin to measure the remaining concentration of free muteins. The concentration of free (non ligand-bound) muteins was determined via a quantitative ELISA setup.
(§2) In detail, a 384-well plate suitable for fluorescence measurements (Greiner FLUOTRAC™ 600, black flat bottom, high-binding) was coated with 20 μl of Neutravidin at a concentration of 5 μg/ml in PBS over night at 4 C. […]
(§3) The residual supernatants were discarded and 20 μl HRP-labeled anti-hNGAL antibody was added at a predetermined optimal concentration in PBS-T/BSA and incubated for 1 h at RT. […] The fluorescence intensity of every well on the plate was read using a fluorescence microplate reader (Tecan or Molecular Devices). To evaluate the data, free mutein concentration, c(mutein)free, was calculated based on the standard curve results, and plotted versus ligand concentration, c(Ligand). […]

[3] = molecular target: T3, human lipocalin 2 (hNGAL) mutein SEQ ID NO: 56 (Homo sapiens, UniProt P80188, A60F/C107S/D97A/I61H/K145G/K154V/K93A/L123M/L56M/L90P/N116A/Q48H/Q69S/R101I/R92W/S147W/S88H/W99K/Y120G/Y126W/Y152T/Y72P); test: Solution binding ELISA, mutein SEQ ID NO: 56
T3 construct: made in house; host or cells: E. coli
Method: as §6, §7

[4] = molecular target: T4, human lipocalin 2 (hNGAL) mutein SEQ ID NO: 8 (Homo sapiens, UniProt P80188, A60T/C107S/D97I/I100T/I61T/K145Y/K154N/K93E/L123Q/L56W/L90Q/N116G/Q48H/Q69P/R101I/R92P/S147I/S88D/W99S/Y120S/Y126H/Y152G/Y72P); test: SPR (Biacore T200), mutein SEQ ID NO: 8; format: binding; settings: 25° C.
T4 construct: made in house; host or cells: E. coli
Method: (§8) In a Surface Plasmon Resonance (SPR) based assay a Biacore T200 instrument (GE Healthcare) was used to measure the binding affinity of muteins to pyoverdine I succinyl, -succinamid, -α-ketoglutaryl with complexed iron ion or to pyoverdine II succinyl, -succinamid, -α-ketoglutaryl with complexed iron ion or to pyoverdine III succinyl, -succinamid, -α-ketoglutaryl with complexed iron ion. Muteins selected for binding to pyoverdines and negative control (SEQ ID NO: 64) were biotinylated for 2 h at room temperature applying an appropriate excess of EZ-Link NHS-PEG4-Biotin (Thermo, Cat#21329) followed by separation of non-reacted Biotin using a Zeba Spin Desalting Plate (Thermo, Cat#21329) according to the manufactures instructions.

[5] = molecular target: T5, human lipocalin 2 (hNGAL) mutein SEQ ID NO: 9 (Homo sapiens, UniProt P80188, A60T/C107S/D97I/I61T/K145Y/K154N/K93D/L123D/L56W/L90Q/N116G/Q48H/Q69P/R101I/R92P/S147V/S88D/W99S/Y120N/Y126H/Y152G/Y72P); test: SPR (Biacore T200), mutein SEQ ID NO: 9; format: binding; settings: 25° C.
T5 construct: made in house; host or cells: E. coli
Method: as §8

[6] = molecular target: T6, human lipocalin 2 (hNGAL) mutein SEQ ID NO: 35 (Homo sapiens, UniProt P80188, A60T/C107S/D97H/K145I/K154W/K93R/L123T/L56V/L90R/N85Q/Q48H/Q69G/R101D/R92I/S147R/S88D/T74A/W99Y/Y126Q/Y152I/Y72N); test: SPR (Biacore T200), mutein SEQ ID NO: 35; format: binding
T6 construct: made in house; host or cells: E. coli
Method: as §8
(§9) Applying a flow rate of 30 μl/min, a single cycle or multi cycle kinetics approach was used with a sample contact time of 120-180 s and a dissociation time of 900-2400 s. […] After ligand immobilization, for analysis using single cycle kinetics all 4-5 concentrations of Pvd were applied consecutively in ascending order before the dissociation was monitored. For analysis using multi cycle kinetics 4 dilutions of Pvd were applied, each followed a dissociation phase. All measurements were performed at 25° C. […] Data were evaluated with Biacore T200 Evaluation software (V 1.0). Double referencing was used. A 1:1 Binding model was used to fit the raw data.

[7] = molecular target: T7, human lipocalin 2 (hNGAL) mutein SEQ ID NO: 16 (Homo sapiens, UniProt P80188, A60T/C107S/D97I/I100T/I61A/K145Y/K154N/K93E/K95E/L123Q/L56W/L90Q/N116G/N85D/Q69P/R101I/R92P/S147T/S88D/T156A/T74V/W99S/Y120S/Y126H/Y152G/Y72P); test: SPR (Biacore T200), mutein SEQ ID NO: 16; format: binding; settings: 25° C.
T7 construct: made in house; host or cells: E. coli
Method: as §8

[8] = molecular target: T8, human lipocalin 2 (hNGAL) mutein SEQ ID NO: 11 (Homo sapiens, UniProt P80188, A60T/C107S/D97V/I61T/K145Y/K154N/K93D/L123N/L56W/L90Q/N116G/Q48H/Q69P/R101I/R92P/S147V/S88D/W99S/Y120N/Y126H/Y152G/Y72P); test: SPR (Biacore T200), mutein SEQ ID NO: 11; format: binding; settings: 25° C.
T8 construct: made in house; host or cells: E. coli
Method: as §8

[9] = molecular target: T9, human lipocalin 2 (hNGAL) mutein SEQ ID NO: 36 (Homo sapiens, UniProt P80188, A60T/C107S/D97H/K145I/K154W/K93R/L123T/L56V/L90R/N85D/Q69G/R101D/R92I/S147R/S88D/T74A/W99Y/Y126Q/Y152I/Y72N); test: SPR (Biacore T200), mutein SEQ ID NO: 36; format: binding; settings: 25° C.
T9 construct: made in house; host or cells: E. coli
Method: as §8

[10] = molecular target: T10, human lipocalin 2 (hNGAL) mutein SEQ ID NO: 10 (Homo sapiens, UniProt P80188, A60T/C107S/D97T/I61T/K145Y/K154N/K93E/L123E/L56W/L90Q/N116D/Q48H/Q69P/R101I/R92P/S147D/S88D/V131M/W99S/Y120N/Y126H/Y152G/Y72P); test: SPR (Biacore T200), mutein SEQ ID NO: 10; format: binding; settings: 25° C.
T10 construct: made in house; host or cells: E. coli
Method: as §8

[11] = molecular target: T11, human lipocalin 2 (hNGAL) mutein SEQ ID NO: 53 (Homo sapiens, UniProt P80188, A60L/C107S/D97K/I61A/K154W/K93H/L123Q/L56E/L62R/L90R/N116L/N85D/Q69M/R101V/S125P/S147V/S88E/W99D/Y120D/Y126E/Y72M); test: SPR (Biacore T200), mutein SEQ ID NO: 53; format: binding; settings: 25° C.
T11 construct: made in house; host or cells: E. coli
Method: (§4) In a Surface Plasmon Resonance (SPR) based assay a Biacore T200 instrument (GE Healthcare) was used to measure the binding affinity of muteins to pyoverdine I succinyl, -succinamid, -α-ketoglutaryl with complexed iron ion or to pyoverdine II succinyl, -succinamid, -α-ketoglutaryl with complexed iron ion or to pyoverdine III succinyl, -succinamid, -α-ketoglutaryl with complexed iron ion. Muteins selected for binding to pyoverdines and negative control (SEQ ID NO: 64) were biotinylated for 2 h at room temperature applying an appropriate excess of EZ-Link NHS-PEG4-Biotin (Thermo, […]) followed by separation of non-reacted Biotin using a Zeba Spin Desalting Plate (Thermo, […]) according to the manufactures instructions.
In the SPR affinity assay, biotinylated muteins and negative control were captured on a sensor chip CAP using the Biotin CAPture Kit (GE Healthcare): Sensor Chip CAP is pre-immobilized with an ssDNA oligo. […]
(§5) Applying a flow rate of 30 μl/min, a single cycle or multi cycle kinetics approach was used with a sample contact time of 120-180 s and a dissociation time of 900-2400 s. […] After ligand immobilization, for analysis using single cycle kinetics all 4-5 concentrations of Pvd were applied consecutively in ascending order before the dissociation was monitored. […] Data were evaluated with Biacore T200 Evaluation software (V 1.0). […]

[12] = molecular target: T12, human lipocalin 2 (hNGAL) mutein SEQ ID NO: 32 (Homo sapiens, UniProt P80188, A60E/C107S/D97N/E64D/I61V/K145N/K154W/K93N/L123V/L56V/L90R/N116K/N85D/Q48H/Q69G/R101E/R92H/S147K/S88E/W99F/Y120N/Y126M/Y152G/Y72P); test: SPR (Biacore T200), mutein SEQ ID NO: 32; format: binding; settings: 25° C.
T12 construct: made in house; host or cells: E. coli
Method: as §8, §9

[13] = molecular target: T13, human lipocalin 2 (hNGAL) mutein SEQ ID NO: 33 (Homo sapiens, UniProt P80188, A60E/C107S/D97N/E64D/I61V/K145N/K154W/K93N/L123V/L56V/L90R/N116K/N85Q/Q48H/Q69G/R101E/R92H/S147K/S88E/W99F/Y120N/Y126M/Y152G/Y72P); test: SPR (Biacore T200), mutein SEQ ID NO: 33; format: binding; settings: 25° C.
T13 construct: made in house; host or cells: E. coli
Method: as §8, §9

[14] = molecular target: T14, human lipocalin 2 (hNGAL) mutein SEQ ID NO: 13 (Homo sapiens, UniProt P80188, A60T/C107S/D97I/I100T/I61T/K145Y/K154N/K93E/K95E/L123Q/L56W/L90Q/N116G/Q48H/Q69P/R101I/R92P/S147T/S88D/T74V/W99S/Y120S/Y126H/Y152G/Y72P); test: SPR (Biacore T200), mutein SEQ ID NO: 13; format: binding; settings: 25° C.
T14 construct: made in house; host or cells: E. coli
Method: as §8

[15] = molecular target: natural wild-type hNGAL (human lipocalin 2) (Homo sapiens, UniProt P80188); settings: Peek et al. 2012; cited from earlier work
[16] = molecular target: negative control lipocalin SEQ ID NO: 64 (Homo sapiens, UniProt P80188, C107S/Q48H); test: SPR (Biacore T200), negative control SEQ ID NO: 64; format: binding; settings: 200 nM
Method: as §4
In the SPR affinity assay, biotinylated muteins and negative control were captured on a sensor chip CAP using the Biotin CAPture Kit (GE Healthcare): Sensor Chip CAP is pre-immobilized with an ssDNA oligo. Undiluted Biotin CAPture Reagent (streptavidin conjugated with the complementary ss-DNA oligo) was applied at a flow rate of 2 μl/min for 300 s. Subsequently, 1 μg/ml to 100 μg/mL of biotinylated muteins or negative control were applied for 300 s at a flow rate of 5 μl/min. The reference channel was loaded with Biotin CAPture Reagent only.
as §5, with “monitored. For analysis using multi cycle kinetics 4 dilutions of Pvd were applied, each followed a dissociation phase. All measurements were performed at 25° C.” for “monitored.”, “1.0). Double referencing was used. A 1:1 Binding model was used to fit the raw data.” for “1.0).”

[17] = molecular target: T15, human lipocalin 2 (hNGAL) muteins from affinity optimization of SEQ ID NO: 56 (Homo sapiens, UniProt P80188); test: Solution binding ELISA, muteins from affinity optimization of SEQ ID NO: 56
T15 construct: C-terminal SA linker and Strep-tag II; E. coli
Method: as §1, §2, §3

T1 sequence (P80188 21-198 with the stated changes): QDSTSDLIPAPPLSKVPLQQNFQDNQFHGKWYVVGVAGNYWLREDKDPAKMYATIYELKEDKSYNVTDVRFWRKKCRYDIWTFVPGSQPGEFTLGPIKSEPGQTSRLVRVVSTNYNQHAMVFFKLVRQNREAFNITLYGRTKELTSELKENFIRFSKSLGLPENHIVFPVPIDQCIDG
T6 sequence (P80188 21-198 with the stated changes): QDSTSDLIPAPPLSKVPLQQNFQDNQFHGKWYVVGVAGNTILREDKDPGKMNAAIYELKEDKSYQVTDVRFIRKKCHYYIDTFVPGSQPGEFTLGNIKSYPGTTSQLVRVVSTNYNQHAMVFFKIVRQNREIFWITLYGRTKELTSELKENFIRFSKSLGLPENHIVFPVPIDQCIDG
T3 sequence (P80188 21-198 with the stated changes): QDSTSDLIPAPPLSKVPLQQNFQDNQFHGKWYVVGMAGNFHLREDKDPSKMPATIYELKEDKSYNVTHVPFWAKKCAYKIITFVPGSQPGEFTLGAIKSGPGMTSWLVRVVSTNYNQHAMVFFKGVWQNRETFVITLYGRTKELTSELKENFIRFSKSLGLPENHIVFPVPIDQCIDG
Sequence of natural wild-type hNGAL (human lipocalin 2) (P80188 21-198): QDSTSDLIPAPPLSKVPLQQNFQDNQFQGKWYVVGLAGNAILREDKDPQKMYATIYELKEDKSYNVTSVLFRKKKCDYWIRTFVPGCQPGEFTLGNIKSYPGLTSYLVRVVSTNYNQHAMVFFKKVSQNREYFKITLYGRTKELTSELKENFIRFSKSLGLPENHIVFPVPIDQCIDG
T2 sequence (P80188 21-198, stated change not applied): as the sequence (P80188 21-198) above
T14 sequence (P80188 21-198 with the stated changes): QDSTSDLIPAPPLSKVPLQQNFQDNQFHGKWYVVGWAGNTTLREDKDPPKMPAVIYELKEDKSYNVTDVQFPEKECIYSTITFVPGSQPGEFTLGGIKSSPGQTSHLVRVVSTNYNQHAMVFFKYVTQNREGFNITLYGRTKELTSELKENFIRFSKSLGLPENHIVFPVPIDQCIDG
T4 sequence (P80188 other isoform, or with tags, fused parts or gaps with the stated changes): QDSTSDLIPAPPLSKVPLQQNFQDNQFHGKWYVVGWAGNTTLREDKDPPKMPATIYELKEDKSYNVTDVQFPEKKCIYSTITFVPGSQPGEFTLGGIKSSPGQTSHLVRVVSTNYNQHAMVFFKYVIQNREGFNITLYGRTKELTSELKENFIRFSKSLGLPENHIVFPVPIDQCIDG
Sequence of negative control lipocalin SEQ ID NO: 64 (P80188 21-198 Q48H/C107S): as the sequence (P80188 21-198) above, with Q28H, C87S counted along it
T7 sequence (P80188 21-198 with the stated changes): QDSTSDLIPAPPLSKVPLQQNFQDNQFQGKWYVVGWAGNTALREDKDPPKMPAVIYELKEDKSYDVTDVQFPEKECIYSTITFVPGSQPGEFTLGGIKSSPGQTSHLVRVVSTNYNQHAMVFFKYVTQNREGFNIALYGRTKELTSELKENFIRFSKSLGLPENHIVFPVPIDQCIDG
T11 sequence (P80188 21-198 with the stated changes): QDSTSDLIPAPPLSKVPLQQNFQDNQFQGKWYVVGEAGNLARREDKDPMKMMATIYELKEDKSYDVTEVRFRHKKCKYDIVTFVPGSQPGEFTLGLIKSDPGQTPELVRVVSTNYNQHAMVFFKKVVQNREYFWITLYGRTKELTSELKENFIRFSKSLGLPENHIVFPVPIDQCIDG
T13 sequence (P80188 21-198 with the stated changes): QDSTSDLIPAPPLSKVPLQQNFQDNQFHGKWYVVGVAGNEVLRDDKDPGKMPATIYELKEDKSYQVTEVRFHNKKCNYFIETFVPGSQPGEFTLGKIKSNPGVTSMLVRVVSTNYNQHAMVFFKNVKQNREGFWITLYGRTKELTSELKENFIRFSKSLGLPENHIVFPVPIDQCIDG
T5 sequence (P80188 other isoform, or with tags, fused parts or gaps with the stated changes): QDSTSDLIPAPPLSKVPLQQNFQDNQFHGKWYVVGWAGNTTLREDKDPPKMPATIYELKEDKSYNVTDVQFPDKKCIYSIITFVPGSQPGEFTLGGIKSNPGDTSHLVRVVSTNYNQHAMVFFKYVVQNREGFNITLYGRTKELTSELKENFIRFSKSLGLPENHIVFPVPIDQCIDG
T10 sequence (P80188 other isoform, or with tags, fused parts or gaps with the stated changes): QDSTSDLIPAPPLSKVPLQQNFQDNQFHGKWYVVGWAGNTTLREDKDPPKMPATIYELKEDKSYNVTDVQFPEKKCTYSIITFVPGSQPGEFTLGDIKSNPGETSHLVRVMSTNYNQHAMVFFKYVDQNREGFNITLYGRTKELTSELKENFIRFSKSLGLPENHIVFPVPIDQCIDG
T12 sequence (P80188 21-198 with the stated changes): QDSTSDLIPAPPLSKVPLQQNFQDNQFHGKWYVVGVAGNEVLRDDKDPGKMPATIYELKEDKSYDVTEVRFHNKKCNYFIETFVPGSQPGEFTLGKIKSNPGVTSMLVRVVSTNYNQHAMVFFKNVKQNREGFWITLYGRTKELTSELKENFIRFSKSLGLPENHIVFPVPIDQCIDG
T8 sequence (P80188 21-198 with the stated changes): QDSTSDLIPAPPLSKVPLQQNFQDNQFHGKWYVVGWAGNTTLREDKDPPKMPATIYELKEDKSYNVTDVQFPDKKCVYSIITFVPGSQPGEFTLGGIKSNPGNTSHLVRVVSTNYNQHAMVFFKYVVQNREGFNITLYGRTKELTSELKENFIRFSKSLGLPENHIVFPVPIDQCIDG
T9 sequence (P80188 21-198 with the stated changes): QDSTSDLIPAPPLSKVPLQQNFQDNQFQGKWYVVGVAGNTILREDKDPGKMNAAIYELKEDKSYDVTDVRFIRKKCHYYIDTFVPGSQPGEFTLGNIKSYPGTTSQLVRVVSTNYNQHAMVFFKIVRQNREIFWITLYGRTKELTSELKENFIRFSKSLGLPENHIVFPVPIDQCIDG
T15 sequence (P80188 21-198, stated change not applied): as the sequence (P80188 21-198) above

CN1C([C@H]2CSC(c3ccccc3O)=N2)SC[C@H]1C(=O)O (stereo partly shown) [pch (−Fe), pyochelin]
affinity (in words) [1]: weak affinity or not at all | improved affinity ([2]; versus SEQ ID NO: 55): more than 75 fold | affinity (in words) [3]: weak affinity or not at all

O=C(N[C@H]1COC(=O)[C@@H](NC(=O)c2cccc(O)c2O)COC(=O)[C@@H](NC(=O)c2cccc(O)c2O)COC1=O)c1cccc(O)c1O.[Fe+3] [Fe-Enterobactin, enterobactin]
KD [4]: no bdg. | KD [5]: no bdg. | KD ([6]; 25° C.): no bdg. | KD [7]: no bdg. | KD [8]: no bdg. | KD [9]: no bdg. | KD [10]: no bdg. | KD [11]: no bdg. | KD [12]: no bdg. | KD [13]: no bdg. | KD [14]: no bdg.

O=C(N[C@H]1COC(=O)[C@@H](NC(=O)c2cccc(O)c2O)COC(=O)[C@@H](NC(=O)c2cccc(O)c2O)COC1=O)c1cccc(O)c1O [Enterobactin, enterobactin, reference compound]
specificity and crossreactivity (binding) ([6]; 2 μM for all analytes): absence of binding | binding to wild-type hNGAL [15]: high affinity

CN1C([C@H]2CSC(c3ccccc3O)=N2)SC[C@H]1C(=O)O.[Fe+3] (stereo partly shown) [pch (+Fe), pyochelin]
absence of binding to negative control [16]: absence of binding | affinity (in words) [17]: no or weak affinity | affinity (in words) [1]: two- to three digit nM affinity | affinity (in words) ([2]; solution binding ELISA): single digit nM affinity | affinity (in words) [3]: two- to three digit nM affinity

Pyoverdine
binding to wild-type hNGAL [15]: did not bind
